Results published in ChEMBL document CHEMBL5236574, “Identification of a new and diverse set of Mycobacterium tuberculosis uracil-DNA glycosylase (MtUng) inhibitors using structure-based virtual screening: Experimental validation and molecular dynamics studies” (Bioorg Med Chem Lett, 2022).

How the values were obtained:
[1] = Inhibition of Mycobacterium tuberculosis uracil-DNA glycosylase by fluorescence based assay
[2] = Inhibition of Mycobacterium tuberculosis uracil-DNA glycosylase expressed in Escherichia coli BL21 (DE3) rosetta cells incubated for 10 sec under shaking condition and measured every 2 mins for 40 mins by fluorescence based assay
[3] = system: Mycobacterium tuberculosis; assay: Potency index, ratio of uracil IC50 to test compound IC50 for inhibition of Mycobacterium tuberculosis uracil-DNA glycosylase

SMILES	IC50 [1] [mM]	IC50 [2] [mM]	Ratio IC50 [3]
CC(C)(C)[C@H](COc1ccccc1F)NC(=O)c1nc(=O)[nH][nH]1	11.3		
Cc1ccc(CCOc2ccc(C[C@@H]3SC(=O)NC3=O)cc2)nc1	8.82		
Cc1ccc(-c2csc3c(=O)n(CC#N)cnc23)cc1	7.93		
O=c1cc[nH]c(=O)[nH]1 [URACIL]		2.05	
CC(C)c1ccc(OCC(=O)Nc2c[nH]c(=O)[nH]c2=O)cc1	7.63		
Cc1[nH]c(=O)[nH]c(=O)c1CC(=O)N(Cc1ccc2c(c1)OCO2)Cc1ccccc1F	0.14		15
O=c1cc(Nc2ccc(N3CCCCC3)cc2)[nH]c(=O)[nH]1	0.8		
O=C(NCc1nc2ccc(Cl)cc2[nH]1)c1c[nH]c(=O)[nH]c1=O	6.53		
CCC(C)(C)C(=O)O[C@H]1C[C@@H](C)C=C2C=C[C@H](C)[C@H](CC[C@@H]3C[C@@H](O)CC(=O)O3)[C@H]21 [SIMVASTATIN]	1.04		
COc1ccc(C(=O)Nc2c[nH]c(=O)[nH]c2=O)cc1[N+](=O)[O-]	15.3		
O=C(Nc1c[nH]c(=O)[nH]c1=O)c1cccc(N2C(=O)CCC2=O)c1	2.12		
CC(C)(Cc1cccc(Cl)c1)C(=O)NCCc1n[nH]c(=O)[nH]1	4.08		
O=C1CN(/N=C/c2ccc([N+](=O)[O-])o2)C(=O)N1 [NITROFURANTOIN]	0.98		
CC(=O)N(CC(O)CO)c1c(I)c(C(=O)NCC(O)CO)c(I)c(C(=O)NCC(O)CO)c1I (stereo not given) [IOHEXOL]	0.6		
